This is an account of results in publication doi:10.1101/636423v1 (biorxiv, 2019).

As a reminder, the IC50 is the concentration that inhibits the measured activity by half. Lower therefore signals greater potency in that assay.

What all share (experiment): DiFMUP hydrolysis, fluorogenic phosphatase assay
Common to all, as to format: biochemical

Assay [1] concerns the target rat PTPRZ-D1D2 (PTPRZ-ICR) (Rattus norvegicus, UniProt Q62656, D2178K/D2179K). The settings on record: substrate DiFMUP; competitive; also bound 1:1 in native MS.
Assay [2] deals with rat PTPRZ-D1D2 (PTPRZ-ICR) (Rattus norvegicus, UniProt Q62656). The settings on record: substrate DiFMUP; competitive; also bound 1:1 to monomer in native MS.
Chain of rat PTPRZ-D1D2 (PTPRZ-ICR) (Rattus norvegicus, UniProt Q62656) (Q62656 1699-2316): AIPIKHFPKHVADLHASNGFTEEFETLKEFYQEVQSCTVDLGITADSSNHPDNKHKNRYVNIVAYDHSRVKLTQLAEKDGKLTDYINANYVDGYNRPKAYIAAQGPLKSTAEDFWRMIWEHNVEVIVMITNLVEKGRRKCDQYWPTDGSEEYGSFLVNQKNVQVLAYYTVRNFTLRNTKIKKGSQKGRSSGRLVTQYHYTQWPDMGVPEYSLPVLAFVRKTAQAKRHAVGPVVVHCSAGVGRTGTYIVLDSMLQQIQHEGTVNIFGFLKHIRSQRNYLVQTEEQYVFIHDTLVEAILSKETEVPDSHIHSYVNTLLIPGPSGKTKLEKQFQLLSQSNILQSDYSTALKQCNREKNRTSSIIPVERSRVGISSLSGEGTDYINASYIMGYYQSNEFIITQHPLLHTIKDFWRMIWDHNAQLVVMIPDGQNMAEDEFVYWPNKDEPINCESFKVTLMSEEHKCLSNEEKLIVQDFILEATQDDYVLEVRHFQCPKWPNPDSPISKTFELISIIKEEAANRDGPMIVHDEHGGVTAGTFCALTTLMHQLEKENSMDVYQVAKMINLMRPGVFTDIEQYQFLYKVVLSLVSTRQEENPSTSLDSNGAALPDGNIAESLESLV
In assay [3] the target is PTPRZ-ΔD2 (ΔD2 mutant of PTPRZ-ICR) (Rattus norvegicus, UniProt Q62656). The settings on record: substrate DiFMUP; competitive; also bound 1:1 in native MS.

Chain of rat PTPRZ-D1D2 (PTPRZ-ICR) (Rattus norvegicus, UniProt Q62656, D2178K/D2179K) (Q62656 1699-2316 D2178K/D2179K): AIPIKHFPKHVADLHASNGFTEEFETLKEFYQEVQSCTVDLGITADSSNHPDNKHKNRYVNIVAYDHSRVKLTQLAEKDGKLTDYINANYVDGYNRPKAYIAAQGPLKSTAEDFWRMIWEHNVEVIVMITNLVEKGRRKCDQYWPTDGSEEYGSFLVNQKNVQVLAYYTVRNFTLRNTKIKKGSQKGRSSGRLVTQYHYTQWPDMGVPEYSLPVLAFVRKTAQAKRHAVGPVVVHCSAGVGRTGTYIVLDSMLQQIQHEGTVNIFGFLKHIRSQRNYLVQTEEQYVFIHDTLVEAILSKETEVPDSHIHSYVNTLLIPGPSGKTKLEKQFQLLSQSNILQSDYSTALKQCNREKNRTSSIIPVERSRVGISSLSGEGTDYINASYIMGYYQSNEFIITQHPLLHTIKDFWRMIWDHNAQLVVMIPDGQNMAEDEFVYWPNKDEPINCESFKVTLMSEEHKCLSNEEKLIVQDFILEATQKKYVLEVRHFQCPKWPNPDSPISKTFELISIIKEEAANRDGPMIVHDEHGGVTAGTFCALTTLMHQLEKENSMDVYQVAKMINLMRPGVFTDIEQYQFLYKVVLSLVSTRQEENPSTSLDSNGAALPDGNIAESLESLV

Take SCB4380: the figures for the IC50 in assay [1], in assay [2] and in assay [3] were 370 nM, 380 nM and 400 nM, respectively.
